Results from the NIST ThermoML archive (doi:10.1021/je020205i).

Assay: xn = mol fraction of the nth substance listed
Conditions: Fluid (supercritical or subcritical phases), Taylor dispersion method, x1 = 0

CCCCCC=CCC=CCC=CCC=CCCCC(=O)O [5,8,11,14-eicosatetraenoic acid] + O=C=O
Conditions | binary diffusion coefficient [m2/s]
308.15 K, 9500 kPa | 7.5e-09
308.15 K, 10000 kPa | 7.17e-09
308.15 K, 10520 kPa | 7.03e-09
308.15 K, 10870 kPa | 6.75e-09
308.15 K, 11000 kPa | 6.58e-09
308.15 K, 11500 kPa | 6.57e-09
308.15 K, 12010 kPa | 6.7e-09
308.15 K, 12020 kPa | 6.48e-09
308.15 K, 12490 kPa | 6.27e-09
308.15 K, 12990 kPa | 6.18e-09
308.15 K, 14000 kPa | 6.17e-09
308.15 K, 15990 kPa | 5.9e-09
308.15 K, 17990 kPa | 5.63e-09
308.15 K, 20010 kPa | 5.48e-09
308.15 K, 22000 kPa | 5.38e-09
308.15 K, 24000 kPa | 5.25e-09
308.15 K, 26000 kPa | 5.11e-09
308.15 K, 28010 kPa | 5.02e-09
308.15 K, 30240 kPa | 4.99e-09
308.15 K, 30490 kPa | 4.85e-09
313.21 K, 9500 kPa | 9.04e-09
313.21 K, 10000 kPa | 8.41e-09
313.21 K, 11010 kPa | 7.76e-09
313.21 K, 12010 kPa | 7.1e-09
313.21 K, 14000 kPa | 6.66e-09
313.21 K, 16000 kPa | 6.29e-09
313.21 K, 18000 kPa | 6.06e-09
313.21 K, 20000 kPa | 5.78e-09
313.21 K, 22010 kPa | 5.64e-09
313.21 K, 24010 kPa | 5.53e-09
313.21 K, 26010 kPa | 5.36e-09
313.21 K, 28020 kPa | 5.24e-09
313.21 K, 30040 kPa | 5.1e-09
313.21 K, 30130 kPa | 5.1e-09
323.15 K, 12010 kPa | 9.02e-09
323.15 K, 12500 kPa | 9.07e-09
323.15 K, 13020 kPa | 8.66e-09
323.15 K, 13480 kPa | 8.28e-09
323.15 K, 14010 kPa | 8.15e-09
323.15 K, 15990 kPa | 7.44e-09
323.15 K, 18000 kPa | 7.03e-09
323.15 K, 20020 kPa | 6.78e-09
323.15 K, 21990 kPa | 6.42e-09
323.15 K, 24000 kPa | 6.21e-09
323.15 K, 26000 kPa | 6.02e-09
323.15 K, 28020 kPa | 5.88e-09
323.15 K, 30050 kPa | 5.64e-09
323.15 K, 30060 kPa | 5.82e-09
333.15 K, 13890 kPa | 1.05e-08
333.15 K, 15030 kPa | 9.16e-09
333.15 K, 15500 kPa | 9.04e-09
333.15 K, 16980 kPa | 8.47e-09
333.15 K, 17500 kPa | 8.32e-09
333.15 K, 19010 kPa | 7.91e-09
333.15 K, 19990 kPa | 7.67e-09
333.15 K, 22010 kPa | 7.26e-09
333.15 K, 24000 kPa | 7.01e-09
333.15 K, 26010 kPa | 6.81e-09
333.15 K, 26060 kPa | 6.78e-09
333.15 K, 28030 kPa | 6.68e-09
333.15 K, 30160 kPa | 6.49e-09
343.15 K, 16200 kPa | 1.01e-08
343.15 K, 16990 kPa | 9.57e-09
343.15 K, 17490 kPa | 9.45e-09
343.15 K, 18010 kPa | 9.14e-09
343.15 K, 18990 kPa | 8.93e-09
343.15 K, 19990 kPa | 8.61e-09
343.15 K, 21000 kPa | 8.46e-09
343.15 K, 22010 kPa | 8.32e-09
343.15 K, 22980 kPa | 7.87e-09
343.15 K, 23990 kPa | 7.79e-09
343.15 K, 26000 kPa | 7.58e-09
343.15 K, 28000 kPa | 7.12e-09
343.15 K, 28050 kPa | 7.3e-09
343.15 K, 30260 kPa | 7.13e-09

CCCCC/C=C\C/C=C\CCCCCCCC(=O)O [(Z,Z)-9,12-octadecadienoic acid] + O=C=O
Conditions | binary diffusion coefficient [m2/s]
308.15 K, 8500 kPa | 8.7e-09
308.15 K, 8970 kPa | 8.31e-09
308.15 K, 10000 kPa | 7.53e-09
308.15 K, 11020 kPa | 7.33e-09
308.15 K, 12000 kPa | 6.89e-09
308.15 K, 14000 kPa | 6.45e-09
308.15 K, 16010 kPa | 6.13e-09
308.15 K, 17470 kPa | 6.02e-09
308.15 K, 18020 kPa | 5.9e-09
308.15 K, 20000 kPa | 5.85e-09
308.15 K, 21000 kPa | 5.71e-09
308.15 K, 22030 kPa | 5.69e-09
308.15 K, 25000 kPa | 5.26e-09
308.15 K, 26000 kPa | 5.2e-09
308.15 K, 28050 kPa | 5.05e-09
308.15 K, 30300 kPa | 4.96e-09
313.21 K, 9490 kPa | 9.47e-09
313.21 K, 10040 kPa | 8.74e-09
313.21 K, 10990 kPa | 8.03e-09
313.21 K, 12000 kPa | 7.7e-09
313.21 K, 14020 kPa | 7.17e-09
313.21 K, 15980 kPa | 6.75e-09
313.21 K, 17980 kPa | 6.47e-09
313.21 K, 20000 kPa | 6.13e-09
313.21 K, 21990 kPa | 5.97e-09
313.21 K, 24000 kPa | 5.77e-09
313.21 K, 26010 kPa | 5.63e-09
313.21 K, 27990 kPa | 5.46e-09
313.21 K, 30040 kPa | 5.49e-09
313.21 K, 30110 kPa | 5.39e-09
323.15 K, 12020 kPa | 8.9e-09
323.15 K, 12510 kPa | 9.15e-09
323.15 K, 13000 kPa | 8.86e-09
323.15 K, 14000 kPa | 8.58e-09
323.15 K, 16000 kPa | 7.76e-09
323.15 K, 18000 kPa | 7.39e-09
323.15 K, 20010 kPa | 7.06e-09
323.15 K, 22000 kPa | 6.83e-09
323.15 K, 24000 kPa | 6.57e-09
323.15 K, 26000 kPa | 6.37e-09
323.15 K, 28020 kPa | 6.12e-09
323.15 K, 30290 kPa | 5.9e-09
333.15 K, 13890 kPa | 9.59e-09
333.15 K, 14480 kPa | 9.99e-09
333.15 K, 15000 kPa | 9.67e-09
333.15 K, 15980 kPa | 9.33e-09
333.15 K, 18000 kPa | 8.66e-09
333.15 K, 20000 kPa | 8.28e-09
333.15 K, 20050 kPa | 8.17e-09
333.15 K, 22000 kPa | 7.82e-09
333.15 K, 24020 kPa | 7.58e-09
333.15 K, 26060 kPa | 7.21e-09
333.15 K, 27020 kPa | 7.14e-09
333.15 K, 28020 kPa | 7.03e-09
333.15 K, 29040 kPa | 6.99e-09
333.15 K, 30070 kPa | 6.82e-09
343.15 K, 16200 kPa | 1.02e-08
343.15 K, 16210 kPa | 1.04e-08
343.15 K, 16990 kPa | 1.02e-08
343.15 K, 17990 kPa | 9.85e-09
343.15 K, 18000 kPa | 9.84e-09
343.15 K, 18990 kPa | 9.43e-09
343.15 K, 20000 kPa | 9.01e-09
343.15 K, 20040 kPa | 9.18e-09
343.15 K, 22000 kPa | 8.71e-09
343.15 K, 24000 kPa | 8.37e-09
343.15 K, 26010 kPa | 8.11e-09
343.15 K, 26990 kPa | 7.88e-09
343.15 K, 28010 kPa | 7.77e-09
343.15 K, 29050 kPa | 7.81e-09
343.15 K, 30030 kPa | 7.64e-09
